No end group written: not given here.
Experiments:
Assay in all cases: biochemical
[1] = biological target: DR1 (DRB1*0101) (Homo sapiens, UniProt P01903+P01911, A100R/D57E/F55L/F60I/F76Y/I96L/L162R/M171V/P40L/Q125E/R42F/V115G/Y59C); format: binding
[2] = biological target: DR4w4 (DRB1*0401) (Homo sapiens, UniProt P01903+P01911, A100K/A169T/F76Y/I96L/K127E/L162R/M171V/N62H/P40V/Q125Y/R42H/S133A/S149N/S66Y/V115G/V209L/W38E); format: binding
[3] = biological target: DR7 (DRB1*0701) (Homo sapiens, UniProt P01903+P01911, A100R/A102G/A103Q/D57E/D86V/E43K/F76Y/K127E/L162R/M171V/P40G/Q125H/Q99D/R33Q/R42Y/R54Q/S133A/S66F/T210M/V115G/Y107V/Y59L/Y89S); format: binding
[4] = biological target: DRB1*0301 (Homo sapiens, UniProt P01903+P01911, A100K/A102G/A103R/A169T/F55Y/I96L/K41T/L162R/M171V/P40S/Q125H/Q178H/Q39Y/R42S/S66N/T106N/T262R/W38E/Y61H); format: binding
Chain of DRB1*0301 (P01903 26-254 limits assumed, other chains not shown): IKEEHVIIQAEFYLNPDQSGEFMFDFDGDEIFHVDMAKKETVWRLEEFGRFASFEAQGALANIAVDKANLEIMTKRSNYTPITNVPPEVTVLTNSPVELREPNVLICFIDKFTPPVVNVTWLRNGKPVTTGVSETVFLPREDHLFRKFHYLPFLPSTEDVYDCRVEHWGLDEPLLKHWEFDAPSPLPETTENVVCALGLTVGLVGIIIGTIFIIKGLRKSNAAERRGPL

[5] = biological target: DRB1*0405 (Homo sapiens, UniProt P01903+P01911, A100R/A169T/D86S/F76Y/I96L/K127E/L162R/M171V/N62H/P40V/Q125Y/R42H/S133A/S149N/S66Y/V115G/V209L/W38E); format: binding
[6] = biological target: DRB1*1201 (Homo sapiens, UniProt P01903+P01911, A100R/A169T/D57E/D86V/F55L/H45Y/K41T/L162R/M171V/P40S/Q125H/Q178H/Q39Y/Q99D/R42G/S66L/T262R/V114A/V67L/W38E/Y59H/Y61H/Y89S); format: binding
[7] = biological target: DRB1*1302 (Homo sapiens, UniProt P01903+P01911, A100E/A169T/K41T/L162R/M171V/P40S/Q125H/Q178H/Q39Y/Q99D/R42S/S66N/T262R/V115G/W38E/Y61H); format: binding
Chain of DRB1*1302 (P01903 26-254 limits assumed, other chains not shown): as above

[8] = biological target: DRB1*1501 (Homo sapiens, UniProt P01903+P01911); format: binding
[9] = biological target: DRB4*0101 (Homo sapiens, UniProt P01903+P13762, G164S); format: binding
[10] = biological target: DRB5*0101 (Homo sapiens, UniProt P01903+Q30154); settings: Binding affinity DRB5 *0101
[11] = biological target: DRB1*0802 (Homo sapiens, UniProt P01903+P01911, A100R/A103L/A169T/F76Y/H45Y/I96F/K41T/L162R/M171V/P40S/Q125H/Q178H/Q39Y/Q99D/R218S/R42G/S66Y/V115G/W38E); format: binding
[12] = biological target: DRB1*0901 (Homo sapiens, UniProt P01903+P01911, A100R/A103E/D57H/D86V/F55Y/F60I/F76Y/I96F/K127E/L162R/M171V/P40D/Q125H/Q99R/R33Q/R42F/S133A/S66N/T210M/V115G/W38K/Y107V/Y59G/Y89S); format: binding
[13] = biological target: DRB1*1101 (Homo sapiens, UniProt P01903+P01911, A100R/A169T/A87E/I96F/K41T/L162R/M171V/P40S/Q125H/Q178H/Q39Y/Q99D/R42S/S66Y/T262R/V115G/W38E); settings: Binding affinity DRB1 *1101
Chain of DRB1*1101 (P01903 26-254 limits assumed, other chains not shown): as above

Row | Compound | IC50 [1] [µM] | IC50 [2] [µM] | IC50 [3] [µM] | IC50 [4] [µM] | IC50 [5] [µM] | IC50 [6] [µM] | IC50 [7] [µM] | IC50 [8] [µM] | IC50 [9] [µM] | IC50 [10] [µM] | IC50 [11] [µM] | IC50 [12] [µM] | IC50 [13] [µM]
1 | CC[C@H](C)[C@H](N)C(=O)N[C@@H](CCC(=O)O)C(=O)N[C@@H](Cc1ccccc1)C(=O)N[C@H](C(=O)N[C@H](C(=O)N[C@@H](Cc1ccccc1)C(=O)N[C@@H](CC(C)C)C(=O)NCC(=O)N[C@@H](C)C(=O)N[C@@H](CC(C)C)C(=O)N[C@@H](CCCCN)C(=O)N[C@@H](CO)C(=O)N[C@@H](Cc1ccccc1)C(=O)N[C@@H](CC(C)C)C(=O)N[C@@H](CCCCN)C(=O)O)[C@@H](C)O)[C@@H](C)CC [Peptide 89.0033] | 0.0086 | 0.074 | 0.41 | 2.3 | 1.64 | 0.41 | > 20 | 0.077 | 0.044 | 0.034 |  |  | 
2 | CC[C@H](C)[C@H](NC(=O)[C@H](Cc1c[nH]c2ccccc12)NC(=O)[C@H](CCC(=O)O)NC(=O)[C@@H]1CCCN1)C(=O)N[C@@H](CCC(=O)O)C(=O)N[C@@H](CCCNC(=N)N)C(=O)N[C@@H](CCC(N)=O)C(=O)N[C@H](C(=O)N[C@H](C(=O)N[C@@H](CC(C)C)C(=O)N[C@@H](CCC(N)=O)C(=O)N[C@@H](Cc1c[nH]cn1)C(=O)N[C@@H](CO)C(=O)N[C@@H](Cc1ccccc1)C(=O)N[C@@H](CC(N)=O)C(=O)O)C(C)C)[C@@H](C)O [Peptide 89.0049] | 5.24 | 0.018 | 2.87 | 0.21 | 0.44 | 7.98 | 0.938 |  | 0.002 | > 20 | 0.707 | 4.52 | 0.401
3 | CC(C)C[C@H](NC(=O)[C@H](CCC(N)=O)NC(=O)[C@H](CCCCN)NC(=O)[C@@H](NC(=O)[C@H](CC(C)C)NC(=O)[C@H](CCC(N)=O)NC(=O)[C@@H](NC(=O)[C@H](C)NC(=O)[C@H](CO)NC(=O)[C@@H](NC(=O)[C@@H](NC(=O)[C@H](CC(=O)O)NC(=O)[C@@H](N)CC(=O)O)[C@@H](C)O)C(C)C)[C@@H](C)O)C(C)C)C(=O)N[C@@H](CCC(N)=O)C(=O)N[C@@H](Cc1c[nH]cn1)C(=O)O [Peptide 89.0162] |  | 0.1 |  | 0.241 | 0.674 | 0.275 | 0.073 | 0.601 | 0.128 | 0.578 |  | 1.97 | 0.943
4 | DHDITDDSDIAYKYA [Peptide 90.0117] | > 20 | 0.51 | > 20 | 0.1 | 2.21 | > 20 | 0.535 | > 20 | 0.577 | 6.83 | > 20 |  | > 20
5 | DNDIVDDSEIAYKYA [Peptide 90.0037] | > 20 | 4.62 | > 20 | 0.028 | > 20 | 5.3 | > 20 |  | > 20 | > 20 | > 20 | > 20 | > 20
6 | DNDVMDDSEIAYKYA [Peptide 90.0069] | > 20 | 3.68 |  | 0.053 | 10.1 | 12.7 | > 20 | 8.22 | > 20 | > 20 | > 20 | > 20 | > 20
7 | DNELTDDSDIAYYYA [Peptide 90.0085] | > 20 | > 20 | > 20 | 0.098 | > 20 | > 20 | > 20 |  | > 20 | > 20 | > 20 | > 20 | > 20
8 | EDEIDTDLDGFIDDS [Peptide 90.0126] | 0.32 | > 20 |  | 0.128 | 1.02 | 0.138 | 0.067 | 0.27 | 0.823 |  |  |  | > 20
9 | EIYIIEEDTCTMVTG [Peptide 90.0203] | 1.36 | 0.258 |  | 0.273 | 3.09 | > 20 | 0.577 | 6.5 | 1.74 | > 20 | > 20 | > 20 | 
10 | ENSIQADTEAARALF [Peptide 90.0078] | 3.91 | > 20 |  | 0.62 | > 20 | 7.44 | > 20 | > 20 | > 20 | > 20 | > 20 | > 20 | > 20
11 | FKYFKEDAAKYSKTQ [Peptide 90.0206] | 0.063 | 0.019 |  | 0.451 | 6.86 | 0.399 | 1.7 | 0.865 | > 20 |  | 0.835 | 1.7 | 0.303
12 | IHFLQGAIISFVNSN [Peptide 89.0089] | 0.0042 | 0.499 | 1.02 | > 20 | 2.61 | 0.071 | 0.442 | 0.054 | 0.272 | > 20 | 1.9 |  | 
13 | KVAMLDDATHTCWTY [Peptide 90.0105] | 0.253 | 0.034 |  | 0.41 | 0.279 | 9.28 | > 20 | 2.23 | 0.021 | > 20 | 8.18 | > 20 | 2.26
14 | LKVLIKQHSLYTHLQ [Peptide 89.0061] | 0.0043 | 0.017 | 0.451 | 1.83 | 0.687 | 0.033 | 0.03 | 0.018 | 0.011 |  | 0.057 |  | 0.043
15 | SNLLSIPETCMVIEP [Peptide 89.0067] | 0.347 | 0.32 |  | > 20 | 0.018 | 3.86 | 0.35 | 0.51 | 0.963 | > 20 | 16.8 | 1.31 | 12.8
16 | VTAIFGVNPTIAEGF [Peptide 89.0023] | 1.14 | 0.836 |  | 3.42 | 0.1 | 6.58 | 0.193 | 5.7 | 0.544 | > 20 | > 20 | 2.91 | > 20
17 | YFKYFKEDAAKYSKT [Peptide 90.0205] |  | 0.07 | 3.63 | 0.483 | > 20 | 8.05 | > 20 | 3.91 | > 20 | 4.66 | 6.03 |  | 1.89
18 | YKTLFVDVTSTYHWT [Peptide 90.0241] | 4.03 | 0.075 | 0.647 | 0.056 | 0.549 | 3.9 | 0.071 |  | > 20 | 5.5 | 14.1 | 2.23 | 4.2

Reference: patent US9340577B2, “HLA binding motifs and peptides and their uses” (priority 1992, dated 2016)
